Values after ≈ are worked out from the molar mass of the structure shown. Where a SMILES comes first, the peptide text is derived from it. Bridges are numbered along the chain shown (N, C = ends). The star is where a group is joined. Lauroyl = CCCCCCCCCCCC(=O)*; Octanoyl = CCCCCCCC(=O)*
Tests used:
[1] = system: B. subtilis (Bs, ATCC 23857); assay: microbe, parasite or virus in culture; type: cell-based, Bacillus subtilis; conditions: for Antimicrobial Activity (MIC) Gram + Bs: ATCC 23857, 24 h
Procedure, shortened: (§1)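 Cultures grown in Mueller–Hinton broth were adjusted by OD600 to 2.5–3 × 10^4 CFU/mL and mixed with two-fold peptide dilutions from 256 to 1 µg/mL. Plates were incubated at 35 °C with OD595 monitored every hour for 24 h.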

[2] = system: C. glutamicum (Cg, ATCC 13032); assay: microbe, parasite or virus in culture; type: cell-based, Corynebacterium glutamicum; conditions: for Antimicrobial Activity (MIC) Gram + Cg: ATCC 13032, 24 h
Procedure, shortened: as §1

[3] = system: S. aureus (Sa, ATCC 9144); assay: microbe, parasite or virus in culture; type: cell-based, Staphylococcus aureus; conditions: for Antimicrobial Activity (MIC) Gram + Sa: ATCC 9144, 24 h
Procedure, shortened: as §1

all bacterial strains = assay: Antibacterial MIC assay, all bacterial strains together (range or geometric mean); type: cell-based; conditions: for GM (geometric mean of the MIC values against all bacterial strains): Table 1, six bacterial strains; for GM of MIC Tot. bact.: Table S3, all bacterial test strains, MIC >256 set to 256
Procedure, shortened: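 Broth microdilution in Mueller–Hinton broth against B. subtilis, C. glutamicum, S. aureus, S. epidermidis RP62A, E. coli and P. aeruginosa; inoculum 2.5–3 × 10^4 CFU/mL, 35 °C, OD595 read hourly for 24 h. MIC: lowest peptide concentration giving OD below 10% of growth control; geometric mean across strains, triplicate.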

[4] = system: Gram-positive bacterial strains; conditions: Table S3; MIC >256 set to 256
Procedure, shortened: as §1

[5] = system: Gram-negative bacterial strains (E. coli and P. aeruginosa); assay: Antibacterial MIC assay, Gram-negative strains together (range or geometric mean); type: cell-based; conditions: Table S3; MIC >256 set to 256
Procedure, shortened: as §1

[6] = system: fungi (A. pullulans, C. albicans, Rhodotorula sp.); assay: Antifungal MIC assay, all fungi together (range or geometric mean); type: cell-based; conditions: Table S3; MIC >128 set to 128
Procedure, shortened: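 Overnight cultures in potato dextrose broth with 2% glucose at 25–30 °C were diluted to approx. 4 × 10^5 spores/mL and mixed 1:1 with two-fold peptide dilutions plated at 256 to 1 µg/mL. After 48 h at room temperature, OD600 was read. MIC was the lowest concentration giving OD below 10% of the growth control, in triplicate.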

B. subtilis 168 [7] = assay: Bacterial biosensor membrane integrity assay (luciferase, D-luciferin influx); type: cell-based, Bacillus subtilis; conditions: for time of membranolytic action (luminescence peak not detectable): B. subtilis 168, 25 µg/mL and 50 µg/mL
Text: (§2) Changes in light emission of sensor bacteria constitutively expressing the bacterial lux operon or a eukaryotic luciferase can be used as a proxy for viability and membrane integrity, respectively. Light production of the viability biosensors represents metabolic activity of the bacteria. For the membrane integrity assay on the other hand, light production depends on the influx of the externally added D-luciferin, which at neural pH will not readily pass the intact plasma membrane. An initial increase in light production therefore corresponds with damage to the plasma membrane and a concomitant influx of D-luciferin, while a subsequent drop in light emission indicates diminishing ATP reserves of the dying sensor bacteria.
A membrane integrity assay was performed using two bacterial biosensors, B. subtilis 168 (ATCC 23857) and E. coli K12 (ATCC MC1061). Both strains carry the pCSS962 plasmid that contains a eukaryotic luciferase gene (lucGR), which originate from the click beetle Pyrophorus plagiophthalamus. The assay was performed as described previously. […] D-luciferin potassium salt (Synchem Inc., Elk Grove Village, IL, USA) was added to the cell suspension at a final concentration of 1 mM. Two-fold dilutions (final assay concentration of 50–1.56 µg/mL) of peptides dissolved in Milli-Q water were prepared and added (10 µL per well) to black round-bottom 96-well microtiter plates (Nunc). Milli-Q water served as a negative control used for the normalization purpose and CHX, having known membranolytic activity, was used as a positive control. The plates were loaded into a Synergy H1 Hybrid Reader and the background luminescence was monitored before aliquots (90 µL) of the cell suspension with D-luciferin were added, one well at the time, by an automatic injector. Light emission was recorded every second for 3 min. Each study was performed at least three times independently, and the figures show a representative dataset.

B. subtilis 168 [8] = assay: Bacterial biosensor viability assay (lux operon luminescence); type: cell-based, Bacillus subtilis; conditions: B. subtilis 168, increasing concentrations, within 3 min
Text: as §2
Bacterial viability, based on light production by constitutively expressed bacterial luciferase, was measured in real time according to the method described by Hansen et al.. The assay was performed using B. subtilis 168 with chromosomally integrated luxABCDE operon and E. coli K12 carrying the plasmid pCGLS-11 containing the luxCDABE operon. […] No D-luciferin was added to the cell suspension. Each assay was performed at least three times independently, and the figures show a representative dataset.

Structure (SMILES)	MIC ([1]; Bacillus subtilis, ATCC23857, B. subtilis ATCC 23857, 24 h, read-out: Antimicrobial Activity (MIC) Gram + Bs) [µg/mL]	MIC ([2]; Corynebacterium glutamicum, ATCC13032, C. glutamicum ATCC 13032, 24 h, read-out: Antimicrobial Activity (MIC) Gram + Cg) [µg/mL]	MIC ([3]; Staphylococcus aureus, ATCC9144, S. aureus ATCC 9144, 24 h, read-out: Antimicrobial Activity (MIC) Gram + Sa) [µg/mL]	MIC (all bacterial strains; read-out: GM (geometric mean of the MIC values against all bacterial strains)) [µg/mL]	Antimicrobial Activity (MIC) Gram + Bs [1] [µg/mL]	Antimicrobial Activity (MIC) Gram + Cg [2] [µg/mL]	Antimicrobial Activity (MIC) Gram + Sa [3] [µg/mL]	GM (geometric mean of the MIC values against all bacterial strains) (all bacterial strains) [µg/mL]	GM of MIC Tot. bact. (all bacterial strains) [µg/mL]	GM of MIC G+ [4] [µg/mL]	GM of MIC G- [5] [µg/mL]	GM of MIC Fungi [6] [µg/mL]	time of membranolytic action (luminescence peak not detectable) (B. subtilis 168 [7]) [s]	effect on viability (light emission) (B. subtilis 168 [8])	effect on membrane integrity (B. subtilis 168 [7]; B. subtilis 168, within 3 min)
[H]/N=C(\N/C(=N/[H])NCCCCCCNC(=N)NC(=N)Nc1ccc(Cl)cc1)Nc1ccc(Cl)cc1 [Chlorhexidine, reference compound]	1.6	0.8	1.6	20 (≈ 39.6 µM)											
CCCCCCCC(=O)N[C@H]1CSSC[C@@H](C(=O)N[C@@H](CCCCN)C(=O)N[C@@H](CC(C)C)C(N)=O)NC(=O)[C@H](CCCCN)NC(=O)[C@H](Cc2c[nH]c3ccccc23)NC(=O)CNC(=O)[C@H](Cc2c[nH]c3ccccc23)NC(=O)[C@H](Cc2c[nH]c3ccccc23)NC(=O)[C@H](CCCCN)NC(=O)[C@H](CCCCN)NC(=O)CNC1=O [Peptide C8-cTurg-2, C8- (CGKKWWGWKC)KL-NH2] (Octanoyl-CGKKWWGWKCKL-NH2; disulfide 1-10)					2	2	4	4	4	3	6	13	< 3	dose-dependent effect on viability	
CCCCCCCCCCCC(=O)N[C@H]1CSSC[C@@H](C(=O)N[C@@H](CCCCN)C(=O)N[C@@H](CC(C)C)C(N)=O)NC(=O)[C@H](CCCCN)NC(=O)[C@H](Cc2c[nH]c3ccccc23)NC(=O)CNC(=O)CNC(=O)[C@@H]2CCCN2C(=O)[C@H](CCCCN)NC(=O)[C@H](CCCCN)NC(=O)CNC1=O [Peptide C12-cTurg-1, C12 -(CGKKPGGWKC)KL-NH2] (Lauroyl-CGKKPGGWKCKL-NH2; disulfide 1-10)					2	2	4	4	4	3	8	20	< 3	dose-dependent effect on viability	rapid and strong membrane disruptive effect
